# Data taken from PubChem BioAssay AID330 (DTP/NCI, 2004).
# Values joined by “and” are separate entries in the source; they are usually repeats but may differ in a detail not shown here. Equal entries are not always repeated. Inconclusive results and toxic doses are left out.
# Tested on: P388 leukemia ip, CD2F1 mice, survival T/C
# Experiment: NCI In Vivo Anticancer Drug Screen. Data for tumor model P388 Leukemia (intraperitoneal) in CD2F1 (CDF1) mice
# Conditions: endpoint: median survival time, higher = longer survival
# Outline: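 Mice carrying the transplanted tumor received test compound or vehicle. Survival was recorded in each group, and the value is the treated-group measurement divided by that of the vehicle-treated control group.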
# [1] = dose: 60.0 mg/kg/injection, schedule: Q01DX005 (ip), vehicle: saline with Tween-80
# [2] = dose: 120.0 mg/kg/injection, schedule: Q01DX005 (ip), vehicle: saline with Tween-80
# [3] = dose: 240.0 mg/kg/injection, schedule: Q01DX005 (ip), vehicle: saline with Tween-80
# [4] = dose: 6.25 mg/kg/injection, schedule: Q01DX009 (ip), vehicle: saline with Tween-80
# [5] = dose: 12.5 mg/kg/injection, schedule: Q01DX009 (ip), vehicle: saline with Tween-80
# [6] = dose: 25.0 mg/kg/injection, schedule: Q01DX009 (ip), vehicle: saline with Tween-80
# [7] = dose: 50.0 mg/kg/injection, schedule: Q01DX005 (ip), vehicle: saline with Tween-80
# [8] = dose: 100.0 mg/kg/injection, schedule: Q01DX005 (ip), vehicle: saline with Tween-80
# [9] = dose: 50.0 mg/kg/injection, schedule: Q01DX009 (ip), vehicle: saline with Tween-80
# [10] = dose: 100.0 mg/kg/injection, schedule: Q01DX009 (ip), vehicle: saline with Tween-80
# [11] = dose: 50.0 mg/kg/injection, schedule: Q01DX009 (ip), vehicle: Klucel (hydroxypropylcellulose) (HPC)
# [12] = dose: 100.0 mg/kg/injection, schedule: Q01DX009 (ip), vehicle: Klucel (hydroxypropylcellulose) (HPC)
# [13] = dose: 200.0 mg/kg/injection, schedule: Q01DX009 (ip), vehicle: Klucel (hydroxypropylcellulose) (HPC)
# [14] = dose: 200.0 mg/kg/injection, schedule: Q01DX005 (ip), vehicle: saline with Tween-80
# [15] = dose: 50.0 mg/kg/injection, schedule: Q01DX005 (ip), vehicle: Klucel (hydroxypropylcellulose) (HPC)
# [16] = dose: 100.0 mg/kg/injection, schedule: Q01DX005 (ip), vehicle: Klucel (hydroxypropylcellulose) (HPC)
# [17] = dose: 200.0 mg/kg/injection, schedule: Q01DX005 (ip), vehicle: Klucel (hydroxypropylcellulose) (HPC)
compound,measurement,setting,value
COc1cc(C[C@H]2[C@H]([C@H](O)c3ccc4c(c3)OCO4)C(=O)O[C@@H]2CO)cc(OC)c1OC,T/C,"dose: 5.0 mg/kg/injection, schedule: Q04DX002 (ip), vehicle: saline with Tween-80",105 % of control
same,T/C,"dose: 10.0 mg/kg/injection, schedule: Q04DX002 (ip), vehicle: saline with Tween-80",102 % of control
same,T/C,"dose: 20.0 mg/kg/injection, schedule: Q04DX002 (ip), vehicle: saline with Tween-80",102 % of control
CCCCC1CCC(=O)NC1=O (centres undefined),T/C,[1],107 % of control
same,T/C,[2],103 % of control
same,T/C,[3],107 % of control
Cc1ccc(C(=O)[Se][Se]C(=O)c2ccc(C)cc2)cc1,T/C,[4],98 % of control
same,T/C,[5],117 % of control
same,T/C,[6],104 % of control and 112 % of control
CC(C)(C)OC(=O)NC(COCc1ccccc1)C(=O)ON1C(=O)CCC1=O (centres undefined),T/C,[7],114 % of control
same,T/C,[8],103 % of control
Nc1ccccc1C(=O)N/N=C\c1ccc(O)cc1,T/C,[5],94 % of control
same,T/C,[6],89 % of control and 91 % of control
same,T/C,[9],101 % of control and 94 % of control
same,T/C,[10],99 % of control and 87 % of control
O=[n+]1c2c(n([O-])c3ccccc31)-c1cccc3cccc-2c13,T/C,"dose: 12.5 mg/kg/injection, schedule: Q01DX010 (ip), vehicle: saline",100 % of control
same,T/C,"dose: 25.0 mg/kg/injection, schedule: Q01DX010 (ip), vehicle: saline",100 % of control
same,T/C,"dose: 50.0 mg/kg/injection, schedule: Q01DX010 (ip), vehicle: saline",100 % of control
same,T/C,"dose: 100.0 mg/kg/injection, schedule: Q01DX010 (ip), vehicle: saline",100 % of control
Cc1c2oc3c(C)ccc(C(=O)NC(C(=O)NC(C(=O)O)C(C)C)C(C)O)c3nc-2c(C(=O)NC(C(=O)NC(C(=O)O)C(C)C)C(C)O)c(N)c1=O (centres undefined),T/C,"dose: 0.05 mg/kg/injection, schedule: Q01DX009 (ip), vehicle: water",100 % of control
same,T/C,"dose: 0.1 mg/kg/injection, schedule: Q01DX009 (ip), vehicle: water",97 % of control
same,T/C,"dose: 0.2 mg/kg/injection, schedule: Q01DX009 (ip), vehicle: water",94 % of control
same,T/C,"dose: 0.4 mg/kg/injection, schedule: Q01DX009 (ip), vehicle: water",99 % of control
same,T/C,"dose: 0.8 mg/kg/injection, schedule: Q01DX009 (ip), vehicle: water",97 % of control
same,T/C,"dose: 1.6 mg/kg/injection, schedule: Q01DX009 (ip), vehicle: water",102 % of control
O=C(NC(Cc1ccc(F)cc1)C(=O)O)c1ccccc1 (centres undefined),T/C,"dose: 25.0 mg/kg/injection, schedule: Q01DX009 (ip), vehicle: other",113 % of control
same,T/C,"dose: 50.0 mg/kg/injection, schedule: Q01DX009 (ip), vehicle: other",115 % of control
same,T/C,"dose: 100.0 mg/kg/injection, schedule: Q01DX009 (ip), vehicle: other",110 % of control
CNC(=S)N/N=C(\C=N\NC(=S)NC)c1ccc(C)cc1,T/C,[11],98 % of control
same,T/C,[12],98 % of control
same,T/C,[13],90 % of control
same,T/C,"dose: 400.0 mg/kg/injection, schedule: Q01DX009 (ip), vehicle: Klucel (hydroxypropylcellulose) (HPC)",90 % of control
CNC(=O)OCc1c(-c2ccccc2)c(-c2ccccc2)n(-c2ccc(OC)cc2)c1COC(=O)NC,T/C,"dose: 12.5 mg/kg/injection, schedule: Q01DX009 (ip), vehicle: distilled water + Tween-80",106 % of control
same,T/C,"dose: 25.0 mg/kg/injection, schedule: Q01DX009 (ip), vehicle: distilled water + Tween-80",103 % of control and 119 % of control
same,T/C,"dose: 50.0 mg/kg/injection, schedule: Q01DX009 (ip), vehicle: distilled water + Tween-80",102 % of control and 119 % of control
same,T/C,"dose: 100.0 mg/kg/injection, schedule: Q01DX009 (ip), vehicle: distilled water + Tween-80",116 % of control and 124 % of control
O=CNC(Cc1cccc(N(CCCl)CCCl)c1)C(=O)O (centres undefined),T/C,"dose: 25.0 mg/kg/injection, schedule: Q01DX009 (ip), vehicle: saline sonified",95 % of control
CN(C)CCN1C(=O)c2c(c3cccn3c3c2cnn3-c2ccccc2)C1=O,T/C,[1],100 % of control
same,T/C,[2],102 % of control
same,T/C,[3],100 % of control
O=C1NNCc2c1oc1ccccc21,T/C,[4],95 % of control
same,T/C,[5],92 % of control
same,T/C,[6],99 % of control
N#Cc1c(N)nc(N)nc1Nc1ccc(Cl)cc1,T/C,[1],113 % of control
same,T/C,[2],110 % of control
same,T/C,[3],115 % of control
O=c1cc(O)c2ccc3ccccc3c2o1,T/C,[7],89 % of control
same,T/C,[8],87 % of control
same,T/C,[14],92 % of control
Cc1cc(=O)oc2cc3c(cc12)CCCN3,T/C,"dose: 60.0 mg/kg/injection, schedule: Q01DX005 (ip), vehicle: Klucel (hydroxypropylcellulose) (HPC)",101 % of control
same,T/C,"dose: 120.0 mg/kg/injection, schedule: Q01DX005 (ip), vehicle: Klucel (hydroxypropylcellulose) (HPC)",104 % of control
same,T/C,"dose: 240.0 mg/kg/injection, schedule: Q01DX005 (ip), vehicle: Klucel (hydroxypropylcellulose) (HPC)",96 % of control
COc1cc(/C=N/NC(=O)c2ccc(NC(C)=O)cc2)ccc1O,T/C,[15],90 % of control
same,T/C,[16],90 % of control
same,T/C,[17],90 % of control
CC(C)COC(=O)NC(C(=O)N(C(=O)NC1CCCCC1)C1CCCCC1)C(C)C (centres undefined),T/C,[15],100 % of control
same,T/C,[16],95 % of control
same,T/C,[17],95 % of control
O=C(O)CSCc1nc2ccccc2[nH]1,T/C,"dose: 100.0 mg/kg/injection, schedule: Q01DX001 (ip), vehicle: saline with Tween-80",95 % of control
same,T/C,"dose: 200.0 mg/kg/injection, schedule: Q01DX001 (ip), vehicle: saline with Tween-80",90 % of control
same,T/C,"dose: 400.0 mg/kg/injection, schedule: Q01DX001 (ip), vehicle: saline with Tween-80",100 % of control
[Cl][Pt+2][Cl].[NH-]C1CCC1.[NH2-],T/C,"dose: 1.5 mg/kg/injection, schedule: Q01DX005 (ip), vehicle: saline",155 % of control and 167 % of control
same,T/C,"dose: 3.0 mg/kg/injection, schedule: Q01DX005 (ip), vehicle: saline",155 % of control and 189 % of control and 190 % of control
same,T/C,"dose: 12.0 mg/kg/injection, schedule: Q01DX005 (ip), vehicle: saline",214 % of control
CN1CCO[Si](C)(C)C[Si](C)(C)OCC1,T/C,"dose: 60.0 mg/kg/injection, schedule: Q01DX005 (ip), vehicle: saline",103 % of control
same,T/C,"dose: 120.0 mg/kg/injection, schedule: Q01DX005 (ip), vehicle: saline",102 % of control
same,T/C,"dose: 240.0 mg/kg/injection, schedule: Q01DX005 (ip), vehicle: saline",105 % of control
Nc1nc(N)c2cc(NCc3ccccc3Cl)ccc2n1,T/C,"dose: 6.25 mg/kg/injection, schedule: Q01DX001 (ip), vehicle: saline with Tween-80",100 % of control
same,T/C,"dose: 12.5 mg/kg/injection, schedule: Q01DX001 (ip), vehicle: saline with Tween-80",112 % of control
same,T/C,"dose: 16.5 mg/kg/injection, schedule: Q01DX009 (ip), vehicle: saline with Tween-80",104 % of control
same,T/C,"dose: 25.0 mg/kg/injection, schedule: Q01DX001 (ip), vehicle: saline with Tween-80",104 % of control
O=C1NC(=O)N2CC(CI)OC2C1c1ccccc1 (centres undefined),T/C,[11],103 % of control
same,T/C,[12],98 % of control
same,T/C,[13],100 % of control
CC1(C)CC(OP(=O)(OCCN2CC2)OCCN2CC2)CC(C)(C)N1O,T/C,[9],107 % of control
same,T/C,[10],100 % of control
same,T/C,"dose: 200.0 mg/kg/injection, schedule: Q01DX009 (ip), vehicle: saline with Tween-80",96 % of control
C=C(C)C(=NC(C)(C)C)N1CCCCC1,T/C,[15],100 % of control
same,T/C,[16],102 % of control
CC(C)C(NC(=O)C(=O)c1c[nH]c2ccc(Cl)cc12)C(=O)O (centres undefined),T/C,[1],100 % of control
same,T/C,[2],91 % of control
same,T/C,[3],90 % of control
Cc1ccc(S(=O)(=O)Nc2ccc3ncccc3c2)cc1,T/C,"dose: 100.0 mg/kg/injection, schedule: Q04DX003 (ip), vehicle: saline with Tween-80",99 % of control
same,T/C,"dose: 200.0 mg/kg/injection, schedule: Q04DX003 (ip), vehicle: saline with Tween-80",98 % of control
C[Si](C)(C)c1ccc2c(c1O)C(=O)c1ccccc1C2=O,T/C,[7],100 % of control
same,T/C,[8],100 % of control
same,T/C,[14],102 % of control
CC(=NC1CCCCC1)Nc1ccc(NC(=O)c2ccc(C(=O)Nc3ccc(NC(C)=NC4CCCCC4)cc3)cc2)cc1,T/C,"dose: 25.0 mg/kg/injection, schedule: Q01DX005 (ip), vehicle: Klucel (hydroxypropylcellulose) (HPC)",98 % of control
same,T/C,[15],104 % of control
same,T/C,[16],98 % of control
same,T/C,[17],102 % of control
COc1cc2nc(C)n(C)c(=O)c2cc1OC,T/C,[5],95 % of control
same,T/C,[6],116 % of control
same,T/C,[9],101 % of control
